Target: Acetylcholinesterase (Homo sapiens, UniProt P22303)
Assay: Inhibition of human acetyl cholinesterase by Ellmann's method

Chain of Acetylcholinesterase (P22303 whole entry): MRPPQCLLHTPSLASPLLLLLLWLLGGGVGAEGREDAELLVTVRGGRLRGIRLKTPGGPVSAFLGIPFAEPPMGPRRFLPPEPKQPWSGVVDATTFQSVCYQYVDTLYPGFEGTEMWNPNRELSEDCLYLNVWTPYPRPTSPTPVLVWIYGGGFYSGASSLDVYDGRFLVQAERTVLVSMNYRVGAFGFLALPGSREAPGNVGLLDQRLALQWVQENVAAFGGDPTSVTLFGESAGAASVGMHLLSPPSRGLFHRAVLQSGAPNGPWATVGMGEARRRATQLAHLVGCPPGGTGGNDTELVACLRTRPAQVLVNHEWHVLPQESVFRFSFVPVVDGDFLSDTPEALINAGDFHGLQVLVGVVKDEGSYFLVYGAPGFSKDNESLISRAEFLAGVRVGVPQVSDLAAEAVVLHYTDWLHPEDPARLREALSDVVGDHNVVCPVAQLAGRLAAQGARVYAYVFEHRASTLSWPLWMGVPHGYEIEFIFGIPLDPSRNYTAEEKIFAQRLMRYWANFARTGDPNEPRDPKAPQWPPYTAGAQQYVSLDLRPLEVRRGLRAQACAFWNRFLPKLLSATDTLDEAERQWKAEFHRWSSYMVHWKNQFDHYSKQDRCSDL

For `COc1ccc(C2CN(C)C3(C(=O)Nc4ccc([N+](=O)[O-])cc43)C23Cc2cc(OC)c(OC)cc2C3=O)cc1OC` (centres undefined), the IC50 was 6.1 µM.
`COc1ccc(C2C(c3ccccc3)NC3(C(=O)Nc4ccccc43)C23Cc2cc(OC)c(OC)cc2C3=O)cc1OC` (centres undefined) was tested, and the IC50 was 5.2 µM.
In the case of `COc1cc2c(cc1OC)C(=O)C1(C2)C(c2ccc(F)cc2)C(c2ccccc2)NC12C(=O)Nc1ccc(Cl)cc12` (centres undefined), the IC50 is reported as 9.86 µM.
Molecule `COc1ccc(C2C(c3ccccc3)NC3(C(=O)Nc4ccc(Cl)cc43)C23Cc2cc(OC)c(OC)cc2C3=O)cc1OC` (centres undefined) has an IC50 of 8.26 µM.
`COc1cc2c(cc1OC)C(=O)C1(C2)C(c2ccccc2Cl)C(c2ccccc2)NC12C(=O)Nc1ccc(Cl)cc12` (centres undefined) was tested, and the IC50 was 12.2 µM.
For `COc1cc2c(cc1OC)C(=O)C1(C2)C(c2ccc(F)cc2)C(c2ccccc2)NC12C(=O)Nc1ccc([N+](=O)[O-])cc12` (centres undefined), the IC50 was 14.3 µM.
Molecule `COc1ccc(C2C(c3ccccc3)NC3(C(=O)Nc4ccc([N+](=O)[O-])cc43)C23Cc2cc(OC)c(OC)cc2C3=O)cc1OC` (centres undefined) has an IC50 of 15.4 µM.
`COc1cc2c(cc1OC)C(=O)C1(C2)C(c2ccccc2)C(c2ccccc2)NC12C(=O)Nc1ccc([N+](=O)[O-])cc12` (centres undefined) was tested, and the IC50 was 3.7 µM.
`COc1cc2c(cc1OC)C(=O)C1(C2)C(c2ccccc2Cl)C(c2ccccc2)NC12C(=O)Nc1ccc([N+](=O)[O-])cc12` (centres undefined) was tested, and the IC50 was 4.2 µM.
In the case of `COc1cc2c(cc1OC)C(=O)C1(C2)C(c2ccc(F)cc2)CN(C)C12C(=O)Nc1ccccc12` (centres undefined), the IC50 is reported as 2.12 µM.
Work on `COc1ccc(C2CN(C)C3(C(=O)Nc4ccccc43)C23Cc2cc(OC)c(OC)cc2C3=O)cc1OC` (centres undefined) yielded an IC50 of 4.2 µM.
For `COc1cc2c(cc1OC)C(=O)C1(C2)C(c2ccccc2)CN(C)C12C(=O)Nc1ccccc12` (centres undefined), the IC50 was 3.12 µM.
`COc1cc2c(cc1OC)C(=O)C1(C2)C(c2ccccc2Cl)CN(C)C12C(=O)Nc1ccccc12` (centres undefined) was tested, and the IC50 was 4.3 µM.
In the case of `COc1cc2c(cc1OC)C(=O)C1(C2)C(c2ccc(F)cc2)CN(C)C12C(=O)Nc1ccc(Cl)cc12` (centres undefined), the IC50 is reported as 3.7 µM.
`COc1ccc(C2CN(C)C3(C(=O)Nc4ccc(Cl)cc43)C23Cc2cc(OC)c(OC)cc2C3=O)cc1OC` (centres undefined) gave an IC50 of 4.2 µM.
`COc1cc2c(cc1OC)C(=O)C1(C2)C(c2ccccc2)CN(C)C12C(=O)Nc1ccc(Cl)cc12` (centres undefined) was tested, and the IC50 was 11.2 µM.
`COc1cc2c(cc1OC)C(=O)C1(C2)C(c2ccccc2Cl)CN(C)C12C(=O)Nc1ccc(Cl)cc12` (centres undefined) was tested, and the IC50 was 6.6 µM.
`COc1cc2c(cc1OC)C(=O)C1(C2)C(c2ccc(F)cc2)CN(C)C12C(=O)Nc1ccc([N+](=O)[O-])cc12` (centres undefined) showed an IC50 of 8.6 µM.
`COc1cc2c(cc1OC)C(=O)C1(C2)C(c2ccccc2)CN(C)C12C(=O)Nc1ccc([N+](=O)[O-])cc12` (centres undefined) gave an IC50 of 13.2 µM.
`COc1cc2c(cc1OC)C(=O)C1(C2)C(c2ccccc2Cl)CN(C)C12C(=O)Nc1ccc([N+](=O)[O-])cc12` (centres undefined) was tested, and the IC50 was 7.6 µM.
In the case of `COc1cc2c(cc1OC)C(=O)C1(C2)C(c2ccc(F)cc2)C(c2ccccc2)NC12C(=O)Nc1ccccc12` (centres undefined), the IC50 is reported as 6.86 µM.
With `COc1cc2c(cc1OC)C(=O)C1(C2)C(c2ccccc2)C(c2ccccc2)NC12C(=O)Nc1ccccc12` (centres undefined) the IC50 was 5.12 µM.
With `COc1cc2c(cc1OC)C(=O)C1(C2)C(c2ccccc2Cl)C(c2ccccc2)NC12C(=O)Nc1ccccc12` (centres undefined) the IC50 was 7.3 µM.
For `COc1cc2c(cc1OC)C(=O)C1(C2)C(c2ccccc2)C(c2ccccc2)NC12C(=O)Nc1ccc(Cl)cc12` (centres undefined), the IC50 was 7.26 µM.
